Publication PMC7465040, “Cytotoxic and Anti-Plasmodial Activities of Stephania dielsiana Y.C. Wu Extracts and the Isolated Compounds” (Molecules, 2020)
Where two headings read alike, the source gives them in different places.

Columns and labels:
MDA-MB-231 = test: SRB cell proliferation assay, MDA-MB-231; type: cell-based, human
Protocol: (§1) In vitro anticancer study: The in vitro anti-proliferative tests were carried out as described previously, using aliquots of the cell lines used therein. Briefly, HeLa, MDA-MB-231 and MDA-MB-468, MCF7, and 184B5 and MCF 10A cell lines were purchased from ATCC. The identity of the cell lines presented in this study were verified by short tandem repeat profiling by Genetica DNA Laboratories (www.celllineauthentication.com) (April 8, 2015). MCF10A was grown in DMEM F12 medium supplemented with 0.02 μg/mL epidermal growth factor, 10% FBS, 10 μg/mL insulin and […] hydrocortisone. MDA-MB-468 were grown in DMEM supplemented with 10% FBS and antibiotics cocktail (100 μg/mL streptomycin, 100 units/mL penicillin and 250 ng/mL amphotericin B). SRB cell proliferation assays were carried out as previously described, with some minor modifications. The concentration range for all tested cell lines were from 100–0.39 μg/mL for extracts and 100–0.39 μM for pure compounds. […] All experiments were carried out at least twice.

184B5 = test: SRB cell proliferation assay, 184B5 non-cancer cells; type: cell-based, human; settings: for IC50: Homo sapiens, 184B5, read-out: IC50 (μM ± SD) 184B5
Protocol: as §1

MCF 10A = test: SRB cell proliferation assay, MCF10A non-cancer cells; type: cell-based; settings: Homo sapiens, read-out: IC50 (μM ± SD) MCF 10A
Protocol: as §1

[1] = tested on: chloroquine-susceptible 3D7 P. falciparum strain; test: In vitro anti-plasmodial assay (HRP2 ELISA), 3D7; type: cell-based, Plasmodium falciparum; settings: for IC50: 72 h, HRP2 ELISA, mean of five experiments, read-out: IC50 (μM ± SD) 3D7
Protocol: (§2) Parasites were grown in A-positive human blood (Etablissement Français du Sang, Marseille, France) under controlled atmospheric conditions that consisted of 10% O2, 5% CO2, and 85% N2 at 37 °C with a humidity of 95%.
(§3) In vitro anti-plasmodial assay: The two P. falciparum strains 3D7 and W2 were synchronized twice with sorbitol before use. The clonality of these strains was verified both in our laboratory and in an independent laboratory from the Worldwide Anti-malarial Resistance Network (WWARN) by PCR genotyping of the polymorphic genetic markers msp1 and msp2 and microsatellite loci. The compounds were re-suspended in methanol or DMSO 5% (v/v) and then diluted in methanol to obtain final concentrations ranging from 0.008 to 500 μg/mL (final concentration of 0.5% of methanol or DMSO). […] The plates were incubated for 72 h at 37 °C in controlled atmospheric conditions 5% CO2, 10% O2, and […]. After thawing the plates, haemolysed cultures were homogenized by vortexing the plates. Both the success of the drug susceptibility assay and the appropriate volume of haemolysed culture to use for each assay were determined for each clinical isolate during a preliminary HRP2 ELISA. Both the pre-test and subsequent ELISA assays were performed using a commercial kit (Malaria Ag Celisa, ref KM2159, Cellabs PTY LTD, Brookvale, Australia) according to the manufacturer’s recommendation. The optical density (OD) of each sample was measured with a spectrophotometer (Safire 2, Tecan, Lyon, France). […] The anti-plasmodial in vitro assay was performed five times for each product. The IC50 values represented the mean value calculated from five experiments. According to Hout, a selectivity index (SI) was based on the ratio between anti-parasitic and cytotoxic activities. In the case of our study, a SI was calculated between non-tumorigenic cell line 184B5 and parasites 3D7 or W2 and/or MCF10A and these two parasites.

Aurora A = biological target: T1, Aurora A (Homo sapiens, UniProt O14965); test: In vitro kinase assay (ADP-Glo), Aurora A; type: biochemical; settings: ± standard deviation, n = 2
T1 construct: purchased Promega
T1 sequence (O14965 1-403): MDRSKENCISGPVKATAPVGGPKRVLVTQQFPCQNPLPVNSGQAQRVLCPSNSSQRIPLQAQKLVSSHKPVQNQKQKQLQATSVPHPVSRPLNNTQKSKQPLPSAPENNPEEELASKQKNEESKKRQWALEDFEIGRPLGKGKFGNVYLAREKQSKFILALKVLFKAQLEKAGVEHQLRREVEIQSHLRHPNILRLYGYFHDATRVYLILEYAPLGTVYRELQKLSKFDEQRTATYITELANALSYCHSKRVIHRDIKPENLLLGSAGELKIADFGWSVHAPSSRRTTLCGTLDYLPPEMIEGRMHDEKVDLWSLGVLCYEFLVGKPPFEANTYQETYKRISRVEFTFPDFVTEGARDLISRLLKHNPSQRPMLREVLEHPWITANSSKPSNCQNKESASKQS
Protocol: (§4) In vitro kinase assay: The Aurora A and B kinase assays were carried out using the Promega ADP-Glo based Kinase Activity Profiling system. The protocols for the Aurora A/(Myelin Basic Protein (MBP) and Aurora B/MBP assay kits were according to those recommended by the suppliers. The concentration range used was from 20 μM–39.1 nM in 384-well plates. The luminescent output from the kinase assay was read on a Biotek Synergy H4 plate reader.

Aurora B = biological target: T2, Aurora B (Homo sapiens, UniProt Q96GD4); test: In vitro kinase assay (ADP-Glo), Aurora B; type: biochemical; settings: ± standard deviation, n = 2
T2 construct: purchased Promega
Protocol: as §4

[2] = tested on: HeLa, MDA-MB231, MDA-MB-468, MCF7, 184B5 and MCF10A cell lines; test: SRB cell proliferation assay, whole panel of cell lines; type: cell-based, human; settings: Homo sapiens; cancer and non-cancer cell lines; read-out: IC50 values, range over the cell lines examined
Protocol: as §1

[3] = tested on: Plasmodium falciparum 3D7 and W2 strains; test: In vitro anti-plasmodial assay, both strains; type: cell-based
Protocol: as §2, §3

HeLa cells = test: Cell cycle analysis, propidium iodide flow cytometry; type: cell-based, human; settings: asynchronous HeLa, 10 μM, 12–72 h
Protocol: Cell cycle analysis: Propidium iodide staining and flow cytometry analysis were carried out as described previously with minor modifications. Briefly, 250,000 HeLa cells (50,000 cells/mL) were treated with 10 μM oxostephanine (1) and harvested at the indicated time points. All experiments were carried out at least twice.

[4] = tested on: phosphorylation of histone H3 on Ser-10 in HeLa cells; test: Western blot, histone H3 Ser-10 phosphorylation; type: cell-based, human; settings: 12 h
Protocol: Western Blot analysis: Western blotting was carried out as described previously. The primary antibodies used were from Cell Signaling (Histone H3; p-Histone H3^S10 and Phospho-Aurora A (Thr288)/Aurora B (Thr232)/Aurora C (Thr198)) and used at recommended dilution. For cell synchronization at prometaphase, HeLa cells were treated with 50 ng/mL nocodazole (NZ) (Santa Cruz Biotechnology) for 12 h. All experiments were carried out at least twice.

T2 sequence (Q96GD4 whole entry): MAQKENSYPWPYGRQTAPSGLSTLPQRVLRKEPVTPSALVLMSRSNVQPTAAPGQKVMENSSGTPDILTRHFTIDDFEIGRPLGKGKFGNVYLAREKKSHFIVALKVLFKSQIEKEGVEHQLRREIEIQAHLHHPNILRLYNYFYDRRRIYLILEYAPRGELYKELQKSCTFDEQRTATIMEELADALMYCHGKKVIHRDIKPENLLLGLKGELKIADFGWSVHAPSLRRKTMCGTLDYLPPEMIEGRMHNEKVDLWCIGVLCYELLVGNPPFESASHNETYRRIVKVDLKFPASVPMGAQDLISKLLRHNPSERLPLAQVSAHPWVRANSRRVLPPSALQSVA

With COc1cccc2c1C(=O)c1nccc3cc4c(c-2c13)OCO4 [Oxostephanine 1, oxostephanine] the IC50 (MDA-MB-231; Homo sapiens, MDA-MB-231, Table 2A, SRB, 72 h, read-out: IC50 (μM ± SD) MDA-MB-231) was 2.67 ± 0.29 µM, the “Selectivity index (SI) 184B5 versus MDA-MB-231” value (MDA-MB-231; Table 2B, non-cancer 184B5 vs cancer MDA-MB-231) was 0.62 and the “Selectivity index (SI) MCF10A versus MDA-MB-231” value (MDA-MB-231; Table 2B, non-cancer MCF10A vs cancer MDA-MB-231) was 0.93. The IC50 (184B5; Table 2A, SRB, 72 h) was 1.66 ± 0.56 µM, the IC50 (184B5; Table 3, non-cancer cell line) was 1.66 ± 0.56 µM and the “Increase in effectiveness compared with stephanine (3), 184B5” value (184B5; ratio of IC50) was about 4 fold. The IC50 (MCF 10A; Table 2A, SRB, 72 h) was 2.49 ± 0.11 µM, the IC50 (MCF 10A; Table 3, non-cancer cell line) was 2.49 ± 0.11 µM and the IC50 [1] was 63.9 ± 18.4 µM. For the same compound, the IC50 ([1]; Plasmodium falciparum, 3D7, 72 h) was 63.9 to 276 µM, the “SI 3D7 184B5” value ([1]; Table 3, selectivity index between 184B5 and parasites 3D7) was 0.026 and the “SI 3D7 MCF10A” value ([1]; Table 3, selectivity index between MCF10A and parasites 3D7) was 0.039. It also gave an IC50 (Aurora A) of 422 ± 130 nM, an IC50 (Aurora B) of 952 ± 467 nM and an IC50 [2] of 1.66 to 4.35 µM. The “Anti-plasmodial activity against both 3D7 and W2 (in words)” value [3] was “not active”, the Cell cycle distribution (HeLa cells) was “induces a transient G2/M arrest and apoptotic cell death” and the “Phosphorylation of histone H3 on Ser-10” value [4] was “dramatically downregulated”.
